From PubChem BioAssay (NCI)
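Five concentrations, 48 hours, 96-well plates. Here, GI50 denotes the concentration required for 50% inhibition of growth. TGI: total growth inhibition.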

How the values were obtained:
Test in all cases: DTP human tumour cell line panel, 48 h
HT29 colon = test system: HT29 colon
RXF 393 renal = test system: RXF 393 renal
TK-10 renal = test system: TK-10 renal
HCT-116 colon = test system: HCT-116 colon
T-47D breast = test system: T-47D breast
DU-145 prostate = test system: DU-145 prostate
NCI-H522 lung = test system: NCI-H522 lung
RPMI-8226 leukemia = test system: RPMI-8226 leukemia
U251 CNS = test system: U251 CNS
EKVX NSCLC = test system: EKVX NSCLC
KM12 colon = test system: KM12 colon
SN12C renal = test system: SN12C renal
MDA-MB-435 = test system: MDA-MB-435
NCI-H226 lung = test system: NCI-H226 lung
SF-539 CNS = test system: SF-539 CNS
HOP-92 NSCLC = test system: HOP-92 NSCLC
NCI-H23 lung = test system: NCI-H23 lung
HCT-15 colon = test system: HCT-15 colon
SK-OV-3 ovarian = test system: SK-OV-3 ovarian
BT-549 breast = test system: BT-549 breast
SNB-75 CNS = test system: SNB-75 CNS
MDA-MB-231 breast = test system: MDA-MB-231 breast
OVCAR-4 ovarian = test system: OVCAR-4 ovarian
COLO 205 colon = test system: COLO 205 colon
OVCAR-8 ovarian = test system: OVCAR-8 ovarian
LOX IMVI melanoma = test system: LOX IMVI melanoma
PC-3 prostate = test system: PC-3 prostate
UACC-62 melanoma = test system: UACC-62 melanoma
SNB-19 CNS = test system: SNB-19 CNS
HL-60(TB) leukemia = test system: HL-60(TB) leukemia
786-0 renal = test system: 786-0 renal
IGROV1 ovarian = test system: IGROV1 ovarian
SK-MEL-2 melanoma = test system: SK-MEL-2 melanoma
SW-620 colon = test system: SW-620 colon
HOP-62 NSCLC = test system: HOP-62 NSCLC
A549 NSCLC = test system: A549 NSCLC
NCI-H460 lung = test system: NCI-H460 lung
ACHN renal = test system: ACHN renal
CAKI-1 renal = test system: CAKI-1 renal
OVCAR-5 ovarian = test system: OVCAR-5 ovarian
SK-MEL-28 melanoma = test system: SK-MEL-28 melanoma
SF-268 CNS = test system: SF-268 CNS
HCC-2998 colon = test system: HCC-2998 colon
SF-295 CNS = test system: SF-295 CNS
HS 578T breast = test system: HS 578T breast
OVCAR-3 ovarian = test system: OVCAR-3 ovarian
UACC-257 melanoma = test system: UACC-257 melanoma
UO-31 renal = test system: UO-31 renal
MALME-3M melanoma = test system: MALME-3M melanoma
MCF7 breast = test system: MCF7 breast
A498 renal = test system: A498 renal
SK-MEL-5 melanoma = test system: SK-MEL-5 melanoma

## CCOC(=O)c1c(NC(=O)c2ccc(C(F)(F)F)cc2)sc2c3c(ccc12)OCN(C)C3
HT29 colon
  GI50: 1750 nM
  TGI: 3340 nM
RXF 393 renal
  GI50: 1560 nM
  TGI: 2970 nM
TK-10 renal
  GI50: 1680 nM
  TGI: 3130 nM
HCT-116 colon
  GI50: 1740 nM
  TGI: 3340 nM
T-47D breast
  GI50: 1840 nM
  TGI: 3960 nM
DU-145 prostate
  GI50: 1810 nM
  TGI: 3410 nM
NCI-H522 lung
  GI50: 1720 nM
  TGI: 3350 nM
RPMI-8226 leukemia
  GI50: 1330 nM
  TGI: 3860 nM
U251 CNS
  GI50: 1710 nM
  TGI: 3340 nM
EKVX NSCLC
  GI50: 1690 nM
  TGI: 3360 nM
KM12 colon
  GI50: 2010 nM
  TGI: 3770 nM
SN12C renal
  GI50: 1790 nM
  TGI: 3430 nM
MDA-MB-435
  GI50: 1650 nM
  TGI: 3160 nM
NCI-H226 lung
  GI50: 1790 nM
  TGI: 3600 nM
SF-539 CNS
  GI50: 1750 nM
  TGI: 3300 nM
HOP-92 NSCLC
  GI50: 1140 nM
  TGI: 2680 nM
NCI-H23 lung
  GI50: 1810 nM
  TGI: 3500 nM
HCT-15 colon
  GI50: 1740 nM
  TGI: 3280 nM
SK-OV-3 ovarian
  GI50: 1950 nM
  TGI: 3770 nM
BT-549 breast
  GI50: > 100000 nM
  TGI: > 100000 nM
SNB-75 CNS
  GI50: 1490 nM
  TGI: 3340 nM
MDA-MB-231 breast
  GI50: 1860 nM
  TGI: 3700 nM
OVCAR-4 ovarian
  GI50: 1760 nM
  TGI: 3460 nM
COLO 205 colon
  GI50: 1780 nM
  TGI: 3500 nM
OVCAR-8 ovarian
  GI50: 1860 nM
  TGI: 3760 nM
LOX IMVI melanoma
  GI50: 1650 nM
  TGI: 3210 nM
PC-3 prostate
  GI50: 1530 nM
  TGI: 3150 nM
UACC-62 melanoma
  GI50: 1720 nM
  TGI: 3280 nM
SNB-19 CNS
  GI50: 1780 nM
  TGI: 3520 nM
HL-60(TB) leukemia
  GI50: 1690 nM
  TGI: 4740 nM
786-0 renal
  GI50: 2220 nM
  TGI: 4920 nM
IGROV1 ovarian
  GI50: 1810 nM
  TGI: 3520 nM
SK-MEL-2 melanoma
  GI50: 1800 nM
  TGI: 3440 nM
SW-620 colon
  GI50: 1780 nM
  TGI: 3420 nM
HOP-62 NSCLC
  GI50: 2000 nM
  TGI: 4320 nM
A549 NSCLC
  GI50: 1790 nM
  TGI: 3610 nM
NCI-H460 lung
  GI50: 1890 nM
  TGI: 3550 nM
ACHN renal
  GI50: 1800 nM
  TGI: 3240 nM
CAKI-1 renal
  GI50: 1670 nM
  TGI: 3200 nM
OVCAR-5 ovarian
  GI50: 1800 nM
  TGI: 3400 nM
SK-MEL-28 melanoma
  GI50: 1800 nM
  TGI: 3280 nM
SF-268 CNS
  GI50: 1830 nM
  TGI: 3660 nM
HCC-2998 colon
  GI50: 1670 nM
  TGI: 3150 nM
SF-295 CNS
  GI50: 1790 nM
  TGI: 3320 nM
HS 578T breast
  GI50: 1840 nM
  TGI: 3970 nM
OVCAR-3 ovarian
  GI50: 1790 nM
  TGI: 3330 nM
UACC-257 melanoma
  GI50: 1620 nM
  TGI: 3270 nM
UO-31 renal
  GI50: 1550 nM
  TGI: 2950 nM
MALME-3M melanoma
  GI50: 1830 nM
  TGI: 3510 nM
MCF7 breast
  GI50: 1620 nM
  TGI: 3080 nM
A498 renal
  GI50: 1670 nM
  TGI: 3210 nM
SK-MEL-5 melanoma
  GI50: 1810 nM
  TGI: 3450 nM
